Source: patent US20080292580A1, “Treatment of Inflammatory Diseases” (UNIVERSITY COLLEGE LONDON HOSPITALS NHS FOUNDATION, priority 2004, published 2008)

System: normal mice
Experiment: Toxic effects of PEG-saline infusion in normal mice
Conditions: mouse, in vivo
Procedure: In this example, the toxic effects of high molecular weight polyethylene glycol at high concentrations were compared to the effects of low molecular weight polyethylene glycol at even higher concentrations.
Normal mice, which were not subjected to zymozan or lipopolysaccharide injections, were infused (25 ml/kg) with either PEG-200-saline solution at a PEG-200 concentration of 100 mg/ml or PEG-4000-saline solution at a PEG-4000 concentration of 30 mg/ml.

polyethylene glycol [PEG 200-saline]
survival of normal mice: survived
